Patent US10167297B2, “Substituted pyridine compounds having herbicidal activity” (BASF SE, priority 2014, dated 2019)

How the values were obtained:
Type in all cases: in vivo
[1] = tested on: Zea mays; assay: greenhouse post-emergence herbicidal activity on crop plant corn (use examples); conditions: ZEAMX (corn, crop plant), scale 0 to 100; for plant injury at 250 g/ha: 0.25 kg/ha; for plant injury at 125 g/ha: 0.125 kg/ha; for plant injury at 31 g/ha: 0.031 kg/ha
Source text: (§1) The seeds of the test plants were sown separately for each species. For the pre-emergence treatment, the active ingredients, which had been suspended or emulsified in water, were applied directly after sowing by means of finely distributing nozzles. The containers were irrigated gently to promote germination and growth and subsequently covered with transparent plastic hoods until the plants had rooted. This cover caused uniform germination of the test plants, unless this had been impaired by the active ingredients. For the post-emergence treatment, the test plants were first grown to a height of 3 to 15 cm, depending on the plant habit, and only then treated with the active ingredients which had been suspended or emulsified in water. For this purpose, the test plants were either sown directly and grown in the same containers, or they were first grown separately as seedlings and transplanted into the test containers a few days prior to treatment. Depending on the species, the plants were kept at 10-25° C. or 20-35° C., respectively. The test period extended over 2 to 4 weeks. During this time, the plants were tended, and their response to the individual treatments was evaluated. Evaluation was carried out using a scale from 0 to 100. 100 means no emergence of the plants, or complete destruction of at least the aerial moieties, and 0 means no damage, or normal course of growth. A good herbicidal activity is given at values of at least 70 and a very good herbicidal activity is given at values of at least 85. The plants used in the greenhouse experiments were of the following species: [table]

[2] = tested on: Echinocloa crus-galli; assay: greenhouse post-emergence herbicidal activity (use examples); conditions: Echinochloa crus-galli, ECHCG, scale 0 to 100; for pest or weed control at 250 g/ha: 0.25 kg/ha; for pest or weed control at 125 g/ha: 0.125 kg/ha; for pest or weed control at 31 g/ha: 0.031 kg/ha
Source text: as §1

[3] = tested on: Amaranthus retroflexus; assay: as above; conditions: AMARE, scale 0 to 100
Source text: as §1

[4] = tested on: Chenopodium album; assay: as above; conditions: CHEAL, scale 0 to 100
Source text: as §1

[5] = tested on: Digitaria sanguine; assay: comparative greenhouse post-emergence herbicidal activity; conditions: DIGSA, 20 days, scale 0 to 100
Description: (§2) The herbicidal activity of the compounds I-5 (N-[2,6-dichloro-3-(8-hydroxy-6,6-dioxo-5H-thiopyrano[4,3-b]pyridin-7-yl)phenyl]-N-methyl-acetamide) and 1-19 (Methyl N-[2,6-dichloro-3-(8-hydroxy-5,5-dimethyl-6,6-dioxo-thiopyrano[4,3-b]pyridin-7-yl)phenyl]-N-methyl-carbamate) according to this invention was tested in comparison with compound I-5 disclosed on page 147 of WO 2012/084755 A1 (not of the invention). These comparative experiments were performed in greenhouse by using the following procedure:
(§3) The culture containers used were plastic flowerpots containing loamy sand with approximately 3.0% of humus as the substrate. The seeds of the test plants were sown separately for each species.
(§4) For the post-emergence treatment, the test plants were first grown to a height of 3 to 15 cm, depending on the plant habit, and only then treated with the active ingredients which had been suspended or emulsified in water using a volume of 375 I/ha and 1% of an Adjuvant. For this purpose, the test plants were either sown directly and grown in the same containers, or they were first grown separately as seedlings and transplanted into the test containers a few days prior to treatment.
(§5) Depending on the species, the plants were kept at 10-25° C. (cold season grasses) or 20-35° C. (warm season grasses), respectively.
(§6) The test period extended over 20 days. During this time, the plants were tended, and their response to the individual treatments was evaluated.
(§7) Evaluation was carried out using a scale from 0 to 100. 100 means complete destruction of at least the aerial moieties, and 0 means no damage, or normal course of growth. A good herbicidal activity is given at values of at least 70 and a very good herbicidal activity is given at values of at least 85.
(§8) The plants used in the greenhouse experiments were of the following species:
(§9) The application rates in the post-emergence treatment were 0.1, 0.05 and 0.025 kg/ha, respectively.

[6] = tested on: Echinocloa crus-galli; assay: as above; conditions: ECHCG, 20 days, scale 0 to 100
Description: as §2, §3, §4, §5, §6, §7, §8, §9

[7] = tested on: Bromus steliris; assay: as above; conditions: BROST, 20 days, scale 0 to 100
Description: as §2, §3, §4, §5, §6, §7, §8, §9

[8] = tested on: Abuthilon avicennae; assay: as above; conditions: ABUTH, 20 days, scale 0 to 100
Description: as §2, §3, §4, §5, §6, §7, §8, §9

[9] = tested on: Setaria viridis; assay: as above; conditions: SETVI, 20 days, scale 0 to 100
Description: as §2, §3, §4, §5, §6, §7, §8, §9

[10] = tested on: Ambrosia artimisifolio; assay: as above; conditions: AMBEL, 20 days, scale 0 to 100
Description: as §2, §3, §4, §5, §6, §7, §8, §9

[11] = tested on: Avena Fatua; assay: as above; conditions: AVEFA, 20 days, scale 0 to 100
Description: as §2, §3, §4, §5, §6, §7, §8, §9

[12] = tested on: Polygonum convolvulus; assay: as above; conditions: POLCO, 20 days, scale 0 to 100
Description: as §2, §3, §4, §5, §6, §7, §8, §9

[13] = tested on: Lolium Multiflori; assay: as above; conditions: LOLMU, 20 days, scale 0 to 100
Description: as §2, §3, §4, §5, §6, §7, §8, §9

[14] = tested on: Zea mays; assay: comparative greenhouse post-emergence herbicidal activity on crop plant corn; conditions: ZEAMX (corn, crop plant), 20 days, scale 0 to 100
Description: as §2, §3, §4, §5, §6, §7, §8, §9

[15] = tested on: Setaria viridis; assay: greenhouse post-emergence herbicidal activity (use examples); conditions: SETVI, scale 0 to 100
Source text: as §1

Structure (SMILES): O=C1CCCN1c1c(Cl)ccc(C2=C(O)c3ncccc3CS2(=O)=O)c1Cl [Compound I-1, 1-[2,6-dichloro-3-(8-hydroxy-6,6-dioxo-5H-thiopyrano[4,3-b]pyridin-7-yl)phenyl]pyrrolidin-2-one]
- plant injury at 250 g/ha [1]: 0%
- pest or weed control at 250 g/ha [2]: 100%
- Herbicidal activity ([3]; 0.25 kg/ha): 100
- Herbicidal activity ([4]; 0.25 kg/ha): 100

Structure (SMILES): CC(=O)N(C)c1c(Cl)ccc(C2=C(O)c3ncccc3CS2(=O)=O)c1Cl [Compound I-5, N-[2,6-dichloro-3-(8-hydroxy-6,6-dioxo-5H-thiopyrano[4,3-b]pyridin-7-yl)phenyl]-N-methyl-acetamide]
- plant injury at 125 g/ha [1]: 10%
- Herbicidal activity ([5]; 0.025 kg/ha): 90
- Herbicidal activity ([5]; 0.05 kg/ha): 95
- Herbicidal activity ([5]; 0.1 kg/ha): 100
- Herbicidal activity ([6]; 0.025 kg/ha): 90
- Herbicidal activity ([6]; 0.05 kg/ha): 100
- Herbicidal activity ([6]; 0.1 kg/ha): 100
- Herbicidal activity ([7]; 0.025 kg/ha): 98
- Herbicidal activity ([7]; 0.05 kg/ha): 98
- Herbicidal activity ([7]; 0.1 kg/ha): 98
- Herbicidal activity ([8]; 0.025 kg/ha): 70
- Herbicidal activity ([8]; 0.05 kg/ha): 80
- Herbicidal activity ([8]; 0.1 kg/ha): 90
- Herbicidal activity ([9]; 0.025 kg/ha): 90
- Herbicidal activity ([9]; 0.05 kg/ha): 90
- Herbicidal activity ([9]; 0.1 kg/ha): 90
- Herbicidal activity ([10]; 0.025 kg/ha): 90
- Herbicidal activity ([10]; 0.05 kg/ha): 100
- Herbicidal activity ([10]; 0.1 kg/ha): 95
- Herbicidal activity ([11]; 0.025 kg/ha): 55
- Herbicidal activity ([11]; 0.05 kg/ha): 85
- Herbicidal activity ([11]; 0.1 kg/ha): 90
- Herbicidal activity ([12]; 0.025 kg/ha): 35
- Herbicidal activity ([12]; 0.05 kg/ha): 45
- Herbicidal activity ([12]; 0.1 kg/ha): 80
- Herbicidal activity ([13]; 0.025 kg/ha): 25
- Herbicidal activity ([13]; 0.05 kg/ha): 55
- Herbicidal activity ([13]; 0.1 kg/ha): 80
- Herbicidal activity ([14]; 0.025 kg/ha): 15
- Herbicidal activity ([14]; 0.05 kg/ha): 45
- pest or weed control at 125 g/ha [2]: 95%
- Herbicidal activity ([3]; 0.125 kg/ha): 98
- Herbicidal activity ([4]; 0.125 kg/ha): 98

Structure (SMILES): CC(=O)N(C)c1c(Cl)ccc(C2=C(O)c3ncccc3C(C)(C)S2(=O)=O)c1Cl [Compound I-6, N-[2,6-dichloro-3-(8-hydroxy-5,5-dimethyl-6,6-dioxo-thiopyrano[4,3-b]pyridin-7-yl)phenyl]-N-methyl-acetamide]
- plant injury at 60 g/ha ([1]; 0.060 kg/ha): 30%
- pest or weed control at 60 g/ha ([2]; 0.060 kg/ha): 90%
- Herbicidal activity ([15]; 0.060 kg/ha): 90

Structure (SMILES): CC(=O)N(C)c1c(Cl)ccc(C2=C(OC(=O)C(C)(C)C)c3ncccc3CS2(=O)=O)c1Cl [Compound I-7, [7-[3-[acetyl(methyl)amino]-2,4-dichloro-phenyl]-6,6-dioxo-5H-thiopyrano[4,3-b]pyridin-8-yl] 2,2-dimethylpropanoate]
- plant injury at 250 g/ha [1]: 20%
- pest or weed control at 250 g/ha [2]: 98%
- Herbicidal activity ([3]; 0.25 kg/ha): 95
- Herbicidal activity ([4]; 0.25 kg/ha): 100

Structure (SMILES): CC(=O)N(C)c1c(Cl)ccc(C2=C(OC(=O)C(C)(C)C)c3ncccc3C(C)(C)S2(=O)=O)c1Cl [Compound I-8, [7-[3-[acetyl(methyl)amino]-2,4-dichloro-phenyl]-5,5-dimethyl-6,6-dioxo-thiopyrano[4,3-b]pyridin-8-yl] 2,2-dimethylpropanoate]
- plant injury at 125 g/ha [1]: 30%
- pest or weed control at 125 g/ha [2]: 98%
- Herbicidal activity ([3]; 0.125 kg/ha): 98
- Herbicidal activity ([4]; 0.125 kg/ha): 100

Structure (SMILES): CC(=O)N(C)c1c(Cl)ccc(C2=C(O)c3ncc(F)cc3CS2(=O)=O)c1Cl [Compound I-11, N-[2,6-dichloro-3-(3-fluoro-8-hydroxy-6,6-dioxo-5H-thiopyrano[4,3-b]pyridin-7-yl)phenyl]-N-methyl-acetamide]
- plant injury at 31 g/ha [1]: 15%
- pest or weed control at 31 g/ha [2]: 90%
- Herbicidal activity ([15]; 0.031 kg/ha): 90
- Herbicidal activity ([4]; 0.031 kg/ha): 90

Structure (SMILES): CC(=O)N(C)c1c(Cl)ccc(C2=C(OC(=O)C(C)(C)C)c3ncc(F)cc3CS2(=O)=O)c1Cl [Compound I-12, [7-[3-[acetyl(methyl)amino]-2,4-dichloro-phenyl]-3-fluoro-6,6-dioxo-5H-thiopyrano[4,3-b]pyridin-8-yl] 2,2-dimethylpropanoate]
- plant injury at 31 g/ha [1]: 15%
- pest or weed control at 31 g/ha [2]: 85%
- Herbicidal activity ([15]; 0.031 kg/ha): 75
- Herbicidal activity ([4]; 0.031 kg/ha): 90

Structure (SMILES): CC(=O)N(C)c1c(Cl)ccc(C2=C(OC(=O)C(C)(C)C)c3ncc(F)cc3C(C)(C)S2(=O)=O)c1Cl [Compound I-13, [7-[3-[acetyl(methyl)amino]-2,4-dichloro-phenyl]-3-fluoro-5,5-dimethyl-6,6-dioxo-thiopyrano[4,3-b]pyridin-8-yl] 2,2-dimethylpropanoate]
- plant injury at 125 g/ha [1]: 15%
- pest or weed control at 125 g/ha [2]: 95%
- Herbicidal activity ([3]; 0.125 kg/ha): 90
- Herbicidal activity ([15]; 0.125 kg/ha): 85

Structure (SMILES): CC(=O)N(C)c1c(Cl)ccc(C2=C(O)c3ncc(F)cc3C(C)(C)S2(=O)=O)c1Cl [Compound I-14, N-[2,6-dichloro-3-(3-fluoro-8-hydroxy-5,5-dimethyl-6,6-dioxo-thiopyrano[4,3-b]pyridin-7-yl)phenyl]-N-methyl-acetamide]
- plant injury at 125 g/ha [1]: 30%
- pest or weed control at 125 g/ha [2]: 98%
- Herbicidal activity ([3]; 0.125 kg/ha): 98
- Herbicidal activity ([15]; 0.125 kg/ha): 100
